{"source": "patent US20220233556A1", "about": "“COMPOSITIONS AND METHODS FOR TREATING OPHTHALMIC CONDITIONS” (Medicon Pharmaceuticals, Inc., priority 2017, published 2022)", "key": {"TGF-β": {"system": "TGF-β", "test": "TGF-β levels in culture medium of human conjunctival cells (ELISA)", "format": "cell-based", "protocol": "FIGS. 7A and 7B illustrate that PS suppresses cytokine levels in cultured conjunctival cells and the ILG of rabbits with DED. […] Cytokine levels were determined by ELISA and represent the average of a three samples. In FIG. 7B, IL-1β and IL-8 levels were determined by ELISA in the lacrimal glands of rabbits with Con A-induced DED that were treated with vehicle or PS for one week as previously. Gland tissue was homogenized and ELISA was performed on whole-tissue lysates. n=8 glands/group. Values=mean±SEM.\nCells were treated with PS 1×IC50 and 2 h later TNF-α was added to the medium to a final concentration of 10 ng/ml. Culture media were harvested 24 h later and the levels of TGF-β, IL-6 and IL-8 were determined by ELISA. Of note, the levels of IL-1 were below the limit of detection."}, "corneal sensitivity": {"system": "corneal sensitivity", "test": "Corneal touch threshold (CTT) assay, Cochet-Bonnet aesthesiometer", "format": "in vivo, rabbits", "protocol": "FIGS. 10A and 10B illustrate the ocular analgesic effect of PS. FIG. 10A: One drop of PS 0.5%, vehicle, or lidocaine was applied to one eye of rabbits (n=4/group) and the corneal touch threshold (CTT) was determined using an Eshesiometer. Vehicle had no effect on CTT (not shown; overlaps with the 0 value horizontal line). Values=mean±SEM. FIG. 10B: PS 0.5% in formulations differing in pH as indicated produced different analgesic responses in rabbits. The areas under each curve (AUC), indicted in the figure, that quantify these responses vary by as much as >5 fold. Values are the average of 2; all were within 11% of each other.\nFIGS. 11A and 11B illustrates the effect of various concentrations of PS on corneal sensitivity determined by the corneal touch threshold (CTT) assay. The CTT score is expressed as length of filament. Measurements were performed at the indicated time points after a single application of PS as an eye drop. Rabbits with normal or dry eyes were studied (n=6 eyes per group). Dry eyes were induced by Concanavalin A injection as described in the text. The % PS content in each study is shown. The numbers in parentheses indicate the corresponding value of the area under the curve. Values=mean±SEM.\nFIGS. 12A and 12B illustrate the effect of various drugs on corneal sensitivity determined by the corneal touch threshold (CTT) assay described herein. Each drug was used in its commercially available form; one eye drop of each was applied. The numbers in parentheses indicate the corresponding value of the area under the curve. Values=mean±SEM.\nThe analgesic effect of PS was examined on the surface of the eye by determining the corneal touch threshold (CTT) using the Luneau Cochet-Bonnet Aesthesiometer (Western Ophthalmics, Lynwood, Wash.) an adjustable nylon monofilament with a defined diameter, which is applied in different lengths to the center of the cornea.\nIn this embodiment, the composition of the PS preparation was: 0.5% PS, 18% (2-hydroxypropyl)-β-cyclodextrin (HP-β-CD), 1-4% Tween 80. Preparation Method: HP-β-CD was dissolved in purified water maintained in a 50° C. water bath. PS was added into this solution and kept at 50° C. overnight with stirring at 500 rpm until PS was fully dissolved. Tween 80 was added into the PS HP-β-CD solution, which was then centrifuged at 3000 rpm for 10 min to remove undissolved particles. The supernatant was collected and pH was adjusted to the desired value using a NaOH solution. The analgesic effect of PS was examined as above.\nThe effect of PS and other compounds on corneal sensitivity was determined in rabbits with normal or dry eyes using the CTT assay as above; DED was induced by Concanavalin A as previously described. The CTT score, expressed as filament length in mm, of normal eyes was 5.56±0.11 mm (mean±SEM for this and subsequent values) and in dry eyes 4.17±0.12 mm; the difference between the two is statistically significant (p<0.0001)."}, "[1]": {"test": "PS biodistribution after topical Poloxamer 407-based in-situ gel", "format": "in vivo, New Zealand white rabbits", "settings": "Poloxamer 407 gel, eye drops; for concentration at 3 h: New Zealand white, rabbit, topical, 5.4 % PS in formulation", "protocol": "Composition: 5.4% PS; 20% Poloxamer 407; 12% Vitamin E TPGS.\nPreparation Method: Poloxamer 407 solution (thermosensitive gel solution) was prepared using a “cold method.” The required amount of Poloxamer 407 and other excipients were dissolved in cold double-distilled water at 4° C. The mixture was stirred continuously until a clear solution was obtained. Then the appropriate amount of PS was dissolved in cold PM solution with continuous stirring at room temperature until a clear solution formed.\nResults: PS in this formulation was administered topically as eye drops to the eyes of New Zealand white rabbits. The biodistribution of PS in ocular tissues at 3 h and 6 h was determined by HPLC."}, "[2]": {"test": "PS biodistribution after topical alternative sodium alginate-based in-situ gel", "format": "in vivo, New Zealand white rabbits", "settings": "New Zealand white, rabbit, 3 % PS in formulation", "protocol": "Composition: 3% PS, 1.5% sodium alginate, 15% Tween 80, 10% (2-hydroxypropyl)-β-cyclodextrin, 10% polyethylene glycol 400 (PEG400), 5% polyoxyl stearate.\nPreparation Method: A sodium alginate solution was prepared by adding an appropriate amount of sodium alginate to deionized water and heating the mixture to 90° C. with fast stirring (500 rpm). Once sodium alginate was completely dissolved, the solution was filtered through a 0.22 μm filter. Then, PS and additional excipients were added to achieve the above concentrations and stirred at 50° C. at 500 rpm until complete dissolution.\nResults: PS in this formulation was administered topically to the eyes of New Zealand white rabbits and its biodistribution was determined as above."}, "[3]": {"settings": "conjunctiva, read-out: PS in Conjunctiva"}}, "note": "Read-outs that look alike come from different tables or passages of the source."}
{"smiles": "CCOP(=O)(OCC)OCCCCOC(=O)CC1=C(C)/C(=C/c2ccc([S+](C)[O-])cc2)c2ccc(F)cc21", "note": "(centres unmarked) [PS, phosphosulindac]", "values": [{"measurement": "reduction of TNF-α-stimulated TGF-β levels", "setting": "TGF-β; PS 1×IC50, TNF-α 10 ng/ml, 24 h", "value": 19, "unit": "%"}, {"measurement": "reduction of unstimulated TGF-β levels", "setting": "TGF-β; PS 1×IC50, not statistically significant", "value": 4.7, "unit": "%"}, {"measurement": "effect on corneal sensitivity (CTT), dry eyes", "setting": "corneal sensitivity; 0.05% PS", "value": "ineffective"}, {"measurement": "effect on corneal sensitivity (CTT), dry eyes", "setting": "corneal sensitivity; 0.2% and 1.6% PS", "value": "essentially equipotent"}, {"measurement": "effect on corneal sensitivity (CTT), dry eyes", "setting": "corneal sensitivity; Con A-induced dry eyes, single eye drop", "value": "restored the already suppressed ocular sensitivity"}, {"measurement": "variation of AUC of analgesic response between formulations differing in pH", "setting": "corneal sensitivity; PS 0.5%, HP-β-CD formulation", "value": "> 5", "unit": "fold"}, {"measurement": "duration of response of corneal sensation", "setting": "corneal sensitivity; dry eye", "value": "less than 100 min"}, {"measurement": "onset of response of corneal sensation", "setting": "corneal sensitivity; dry eye", "value": "≤ 5", "unit": "min"}, {"measurement": "time at which values returned to baseline", "setting": "corneal sensitivity; dry eyes", "value": 100, "unit": "min"}, {"measurement": "analgesic effect (CTT)", "setting": "corneal sensitivity; naïve rabbits, single eye drop, PS 0.5%", "value": "essentially instantaneous and significant analgesia"}, {"measurement": "effect on corneal sensitivity (CTT), normal eyes", "setting": "corneal sensitivity; single eye drop, various PS concentrations", "value": "dose-dependent analgesic effect"}, {"measurement": "PS in Aqueous humor", "setting": "[1]; 3 h, 5.4% PS", "value": 0.3, "unit": "µM"}, {"measurement": "PS in Conjunctiva", "setting": "[1]; 3 h, 5.4% PS", "value": 5.6, "unit": "µM"}, {"measurement": "PS in Aqueous humor", "setting": "[1]; 6 h, 5.4% PS", "value": 0.3, "unit": "µM"}, {"measurement": "PS in Conjunctiva", "setting": "[1]; 6 h, 5.4% PS", "value": 10.7, "unit": "µM"}, {"measurement": "PS in Cornea", "setting": "[1]; 6 h, 5.4% PS", "value": 13.6, "unit": "µM"}, {"measurement": "concentration at 3 h", "setting": "[1]; choroid, 3 h, read-out: PS in Choroid", "value": 900, "unit": "nM"}, {"measurement": "concentration at 3 h", "setting": "[1]; cornea, 3 h, read-out: PS in Cornea", "value": 45100, "unit": "nM"}, {"measurement": "concentration at 1 h", "setting": "[2]; aqueous humor, read-out: PS in Aqueous humor", "value": 400, "unit": "nM"}, {"measurement": "concentration at 1 h", "setting": "[2]; [3]", "value": 4900, "unit": "nM"}, {"measurement": "concentration at 3 h", "setting": "[2]; [3]", "value": 2100, "unit": "nM"}, {"measurement": "concentration at 5 h", "setting": "[2]; [3]", "value": 2300, "unit": "nM"}, {"measurement": "concentration at 8 h", "setting": "[2]; conjunctiva, 8 h", "value": 1300, "unit": "nM"}, {"measurement": "concentration at 1 h", "setting": "[2]; cornea, read-out: PS in Cornea", "value": 17800, "unit": "nM"}, {"measurement": "concentration at 3 h", "setting": "[2]; cornea, read-out: PS in Cornea", "value": 5000, "unit": "nM"}, {"measurement": "concentration at 5 h", "setting": "[2]; cornea, read-out: PS in Cornea", "value": 1000, "unit": "nM"}]}
